Results as given in patent US8435548B2, “Peptide derivatives and cosmetic composition comprising the same” (Bio-FD&C Co., Ltd, priority 2009, dated 2013).
Primed or numbered codes have the meaning given here. Where no end group is shown, it is not given here. Galloyl′ = not defined here

How the values were obtained:
[1] = Free radical scavenging activity test (DPPH method, anti-oxidative activity); format: physicochemical; details: 30 min, absorbance 517 nm
Experimental: A representative antioxidant, vitamin C (Sigma) was used as a positive control, and the galloyl-tetrapeptide and digalloyl-tetrapeptide according to the present invention were mixed with 1,1-diphenyl-2-picrylhydrazyl (DPPH, Sigma) producing free radicals in ethanol to determine the reduced amounts of the produced free radicals. […] The resulting solution was vigorously vortexed for 10 sec, kept at a dark cold place for 30 min, and then its absorbance was measured at 517 nm by ELISA method. The anti-oxidative activity (free radical scavenging activity) was calculated according to the following formula 2 by using the absorbance of pure water as a control, and expressed as a percentage. [formula]

mushroom tyrosinase = test: Inhibition effect on tyrosinase activity; format: biochemical; details: test compound 100 μM; L-tyrosine substrate; pH 6.8; 37° C., 20 min; absorbance 490 nm
Experimental: Inhibition effects of the prepared compounds were measured by the known method (see: Pomerantz S. H., J. Biochem., 24:161-168, 1966).
The test compounds were prepared to a final concentration of 100 μM and put into a 96-well plate, and 220 μl of 100 mM sodium phosphate buffer (pH 6.8) and 40 μl of 1.5 mM L-tyrosine solution were added thereto. The resulting mixture was reacted with the addition of 20 μl of mushroom tyrosinase (1,500 units/ml, Sigma) at 37° C. for 20 min. 0.2 ml of the reacted solution was transferred to a 96-well plate, and its absorbance was measured at 490 nm with a microplate reader to obtain the inhibition effect on tyrosinase.
The tyrosinase inhibition effect was calculated according to the following formula 1 by using the absorbance of pure water as a control, and expressed as a percentage.

| Compound | Free radical scavenging activity (%) ([1]; 10 uM) | Free radical scavenging activity (%) ([1]; 50 uM) | Free radical scavenging activity (%) ([1]; 100 uM) | Inhibition (%) (mushroom tyrosinase) |
| --- | --- | --- | --- | --- |
| O=C(O)c1cc(O)c(O)c(O)c1 [Gallic acid] | 63.1 | 70.4 | 75.1 | 10 |
| Digalloyl-Tetrapeptide(Lysyl-Tyrosyl-Histidyl-Tyrosine) (KYHY; also: digalloyl: two galloyl groups, sites not given here) [Comparative Example 2, soy bean-derived peptide connected to gallic acid] |  |  |  | 21 |
| O=C1O[C@H]([C@@H](O)CO)C(O)=C1O [Vitamin C] | 55.2 | 68.3 | 72.5 |  |
| Galloyl-Tripeptide(Glutamyl-Cysteinyl-Glycine) [Example 3] |  |  |  | 34 |
| Digalloyl-Tetrapeptide(Lysyl-Glutamyl-Cysteinyl-Glycine) [Example 2] | 82.1 | 82.0 | 83.5 | 52 |
| Galloyl-Tetrapeptide(Lysyl-Glutamyl-Cysteinyl-Glycine) [Example 1] | 65.8 | 78.2 | 78.1 | 40 |
| Galloyl-Tripeptide(Tyrosyl-Histidyl-Tyrosine) ({Galloyl′}-Tyr-His-Tyr) [Comparative Example 1, soy bean-derived peptide connected to gallic acid] |  |  |  | 15 |
